From patent publication US20030170740A1, “Characterized E2IG3 protein for diagnosis and treatment of proliferative diseases” (priority 2001, published 2003)

Tested on: MCF-7 cells
Test: High dose E2 treatment of MCF-7 cells (apoptosis)
Format: cell-based, human
Conditions: high dose E2 treatment of MCF-7 cells

Compound: C[C@]12CC[C@@H]3c4ccc(O)cc4CC[C@H]3[C@@H]1CC[C@@H]2O [E2, 17B-estridiol]
- Effect of high dose E2 on cell fate (apoptosis): committed to apoptotic pathways
